Values after ≈ are worked out from the molar mass of the structure shown. Where two headings read alike, the source gives them in different places.
Key:
[1] = Equilibrium solubility of the HSK7653 API in various media; format: physicochemical; details: 37 °C, thermodynamic from solid
Description: Tests were performed by adding an excess amount of API to vials and stirring continuously at a speed of 200 rpm for 24 h at 37 °C. The API concentration was detected once per minute by an in situ fiber-optic ultraviolet (UV) dissolution real-time monitoring system (Pion Scientific Instruments, Billerica, MA, USA). All measurements were performed with n = 3.

[2] = Physicochemical parameters (log P, pKa) from experimental outcomes; details: Measured (in vitro)
Excerpt: (§1) The development of the DLM was complex.

[3] = Renal clearance from in vivo clinical study; details: human, oral; Measured (in vivo); read-out: CLR (renal clearance) (converted)
Excerpt: as §1

[4] = Mass balance study (CTR20201559); format: in vivo, human
[5] = Biliary drainage study in rats (unpublished); format: in vivo
[6] = molecular target: T1, OAT3 (Homo sapiens, UniProt Q8TCC7); assay: Preclinical transporter substrate assessment (unpublished); format: in vitro ADME
T1 sequence (Q8TCC7 1-542): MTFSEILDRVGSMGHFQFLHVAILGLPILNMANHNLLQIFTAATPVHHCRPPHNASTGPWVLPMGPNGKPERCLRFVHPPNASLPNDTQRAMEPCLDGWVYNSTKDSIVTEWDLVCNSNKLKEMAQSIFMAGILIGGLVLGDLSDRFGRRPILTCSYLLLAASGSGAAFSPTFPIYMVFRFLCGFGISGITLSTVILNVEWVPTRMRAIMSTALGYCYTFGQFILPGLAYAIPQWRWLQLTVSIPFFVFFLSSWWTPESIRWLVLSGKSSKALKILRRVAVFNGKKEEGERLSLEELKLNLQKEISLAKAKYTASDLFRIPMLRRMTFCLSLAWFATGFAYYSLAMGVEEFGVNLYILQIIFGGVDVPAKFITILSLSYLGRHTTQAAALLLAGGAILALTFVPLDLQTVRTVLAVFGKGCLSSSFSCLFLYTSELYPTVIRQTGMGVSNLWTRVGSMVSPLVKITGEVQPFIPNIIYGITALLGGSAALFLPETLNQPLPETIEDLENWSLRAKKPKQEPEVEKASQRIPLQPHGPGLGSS

[7] = molecular target: T2, OCT2 (Homo sapiens, UniProt O15244); assay: as above; format: in vitro ADME
T2 sequence (O15244 1-555): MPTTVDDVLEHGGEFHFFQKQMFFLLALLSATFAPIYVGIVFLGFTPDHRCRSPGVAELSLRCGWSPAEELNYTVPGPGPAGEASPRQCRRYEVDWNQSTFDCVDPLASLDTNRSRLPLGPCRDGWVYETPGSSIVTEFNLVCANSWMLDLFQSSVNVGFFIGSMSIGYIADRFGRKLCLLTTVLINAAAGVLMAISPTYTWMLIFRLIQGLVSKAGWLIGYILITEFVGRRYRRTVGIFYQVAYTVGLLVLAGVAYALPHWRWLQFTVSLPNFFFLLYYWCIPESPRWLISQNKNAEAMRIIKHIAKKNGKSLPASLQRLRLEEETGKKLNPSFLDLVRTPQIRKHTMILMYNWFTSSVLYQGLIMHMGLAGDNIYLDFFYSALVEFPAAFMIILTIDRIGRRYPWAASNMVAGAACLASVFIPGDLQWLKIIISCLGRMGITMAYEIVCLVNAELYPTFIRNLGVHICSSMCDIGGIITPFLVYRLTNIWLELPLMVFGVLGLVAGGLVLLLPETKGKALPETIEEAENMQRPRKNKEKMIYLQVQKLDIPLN

[8] = Multidose clinical study of biweekly HSK7653 IR tablets in T2DM patients (CTR20182505): pharmacokinetics; format: in vivo, human; details: biweekly administration of IR tablets
[9] = Single ascending dose clinical study in Chinese healthy volunteers (CTR20180791): pharmacokinetics; format: in vivo, human; details: for AUC / Cmax / clearance / Vd/F: human, in vivo, oral, Chinese healthy volunteers; for clearance: read-out: CL Obs (converted); for Vd/F: read-out: VZ/F Obs
[10] = Predicted by SIVA from dissolution profile in FaSSGF
Description: Based on the results of the two-stage biorelevant dissolution test (see Fig. 4 in 3.2 section), the precipitation parameters in the DLM were not assessed, and the critical supersaturation ratio (CSC) and precipitation rate constant (PRC) were set to the minimum values, respectively.
Furthermore, solubility parameters, representing the influence of pH and bile salts on the solubility, were estimated by Eq. (3) according to the experimental results.
Accordingly, it was unnecessary to evaluate the precipitation parameters for the development of DLM, which (CSC and PCR) were set to minimum values in DLM. Most importantly, the dissolution parameters, such as heff and DLMs, were estimated by Eq. (4) from the dissolution profile in 300 mL FaSSGF medium. Meanwhile, the disintegration lag time of the formulation was evaluated with the method of Weibull function, so that the dissolution profile could be captured by Eq. (4).

[11] = Stability in human liver microsomes incubation system (unpublished); details: 1 μM, 0.5 mg/mL human liver microsomes
Description: Reactions were stopped by removing the plates from the incubator and mixing the incubation solution with 600 μL of ice-cold stop solution (acetonitrile) at the corresponding sampling time points.

[12] = mass balance study, unpublished
[13] = 10 mg, 10 mg single dose, fasted
[14] = 25 mg, 25 mg single dose, fasted
[15] = 50 mg, 50 mg single dose, fasted
[16] = 100 mg, 100 mg single dose, fasted
[17] = 150 mg, 150 mg single dose, fasted

In the case of `CS(=O)(=O)n1cc2c(n1)CN([C@@H]1C[C@H](N)[C@@H](c3cc(F)ccc3F)O[C@@H]1C(F)(F)F)C2` [HSK7653], the solubility at 24 h ([1]; fassgf or other biorelevant, FaSSGF medium) is reported as roughly 5310 µg/mL (≈ 11.4 mM), the solubility at 24 h ([1]; FaSSIF medium) is reported as roughly 342 µg/mL (≈ 0.733 mM) and the solubility thermodynamic at 24 h ([1]; pH 1.0 hydrochloric acid (HCl) solution, simulated gastric fluid, pH 1.0 HCl solution) is reported as 11600 µg/mL (≈ 24.8 mM). The solubility thermodynamic at 24 h ([1]; pH 8.0 phosphate buffer saline (PBS), aqueous buffer, pH 8.0 PBS) was 120 µg/mL (≈ 0.257 mM), the logP [2] was 1.42 and the pKa ([2]; Monoprotic base) was 6.75. The CL renal [3] was 6.22 mL/min, the “Fecal excretion of unchanged compound” value ([4]; mass balance study) was 7.40% and the “Unchanged drug excreted by the kidney” value ([4]; mass balance study) was 68.1%. The “Unrecovered radioactive substances (unknown pathway)” value ([4]; mass balance study) was 4.1%, the “Detected (recovered) radioactivity” value [4, 12] was 95.9% and the “Unextracted radioactive substrates in feces” value [4, 12] was 2.99%. The “Unextracted radioactive substrates in urine” value [4, 12] was 1.99%, the “Unextracted radioactivity in urine and feces (sum)” value ([4]; sum of unextracted radioactivity in urine and feces) was “approximately 4.98%” and the “Radioactivity recovered in biliary drainage study” value [5] was “approximately 16.6%”. The Transporter substrate assessment [6] was “not a common transport substrate”, the Transporter substrate assessment [7] was “not a common transport substrate” and the Accumulation [8] was “no accumulation”. For the same molecule, the “Increase in AUC under the fed state compared with the fasted state” value ([9]; clinical study) was 3%, the AUC ([9]; 5 mg, 5 mg single dose, fasted) was 8980 ng·h/mL and the Cmax ([9]; 5 mg, 5 mg single dose, fasted) was 101 ng/mL. It also gave a clearance ([9]; 5 mg, 5 mg single dose, fasted) of 9.67 mL/min, a Vd/F ([9]; 5 mg, 5 mg single dose, fasted) of 1.65 L/kg and an AUC [9, 13] of 17700 ng·h/mL. For the same molecule, the Cmax [9, 13] was 237 ng/mL, the clearance [9, 13] was 9.67 mL/min and the Vd/F [9, 13] was 1.71 L/kg. The AUC [9, 14] was 40500 ng·h/mL, the Cmax [9, 14] was 413 ng/mL and the clearance [9, 14] was 10.2 mL/min. For the same molecule, the Vd/F [9, 14] was 1.52 L/kg, the AUC [9, 15] was 90400 ng·h/mL and the Cmax [9, 15] was 981 ng/mL. For the same molecule, the clearance [9, 15] was 9.67 mL/min, the Vd/F [9, 15] was 1.26 L/kg and the AUC ([9]; 50 mg, 50 mg single dose, fed) was 92900 ng·h/mL. It also gave a Cmax ([9]; 50 mg, 50 mg single dose, fed) of 834 ng/mL, a clearance ([9]; 50 mg, 50 mg single dose, fed) of 9.5 mL/min and a Vd/F ([9]; 50 mg, 50 mg single dose, fed) of 1.37 L/kg. It also gave an AUC [9, 16] of 218000 ng·h/mL, a Cmax [9, 16] of 2130 ng/mL and a clearance [9, 16] of 8.33 mL/min. For the same molecule, the Vd/F [9, 16] was 1.07 L/kg, the AUC [9, 17] was 269000 ng·h/mL and the Cmax [9, 17] was 3330 ng/mL. For the same molecule, the clearance [9, 17] was 11 mL/min, the Vd/F [9, 17] was 1.13 L/kg and the Dose linearity ([9]; within the currently selected therapeutic dose range) was “dose linear”. The “DLM Scalar values” ([10]; All segments) was 3.009, the heff cut-off value ([10]; Hintz-Johnson) was 36.345 μm and the “Metabolic stability in human liver microsomes” value [11] was “very stable”.
